Data set [1] in a line: Storage stability in a solid state, visual check after 1 month. Type of data set: physicochemical. On the procedure: The HOP alkali metal salt fabricated in each Example was subjected to cold storage (4° C.) and room-temperature storage (23° C.) in a solid state, and changes after a lapse of 1 month were visually checked.
The subject of data set [2] is Human uterine cancer cells, HeLa cells. The data set can be described thus: Cell activity test (cell number by Cell Counting Kit 8). Type of data set: cell-based. Conditions: 2 days. On the procedure: Human uterine cancer cells, HeLa cells, were scattered on 96 wells so as to be 1,000 cells/well, and were cultivated in a DMEM (Invitrogen Corp.)+10% FBS culture medium under the condition of a 5% CO2 concentration and 37° C. in an incubator for one night. Thereafter, the HOP alkali metal salt fabricated in each Example was added to the culture medium so that the concentration of the HOP alkali metal salt became 4.9 mg/L and 19.5 mg/L. Further the cultivation was continued further for 2 days, and thereafter, the culture medium was removed from the wells; the well interiors were washed; and the number of the cells in the wells were measured by using a Cell Counting Kit 8 manufactured by Dojindo Laboratories. There are shown in the following Table the results in the case where the number of the cells when no HOP alkali metal salt was added to the culture medium was taken to be 100.

Another data set in a line: physchem. Conditions: 30 °C, water, thermodynamic from solid.
Data set [3] in a line: Chemical stability: color change on mixing with ascorbic acid aqueous solution. Type of data set: physicochemical. The note with it: 10 mg sample, 200 μl of 10 mass % ascorbic acid aqueous solution. The method, then:
[Chemical Stability] The HOP disodium fabricated in Example 1 and pyrroloquinoline quinone disodium were tested. 10 mg of the each sample was put in a test tube, and 200 μl of a 10 mass % ascorbic acid aqueous solution was mixed.

Data set [4] is described as follows: Measurement of the solubility (30° C.) of a HOP alkali metal salt to water. Conditions: 1 hour or more, absorbance at 360 nm.
Description: (§1) Water in such an amount that the HOP alkali metal salt fabricated in each Example remained undissolved was added to 100 mg of the HOP alkali metal salt. The resultant solution was allowed to stand still at 30° C. for 1 hour or more. Then, the solution was centrifugally separated to thereby separate a supernatant liquid and the HOP alkali metal salt remaining undissolved, and thereafter, the supernatant was diluted and the absorbance at 360 nm was measured. The solubility was calculated from the obtained absorbance.

In brackets after ≈: the same amount, converted by molar mass.

Description for physchem: as §1

As for `CC(=O)CC1(O)C(=O)c2cc(C(=O)[O-])[nH]c2-c2c(C(=O)[O-])cc(C(=O)[O-])nc21.[Li+].[Li+].[Li+]` (racemic) [HOP trilithium], in data set [1], the “Cold Storage (4° C.): visual change” value is reported as “no change”.
Take `CC(=O)CC1(O)C(=O)c2cc(C(=O)[O-])[nH]c2-c2c(C(=O)[O-])cc(C(=O)[O-])nc21.[Na+].[Na+].[Na+]` (racemic) [HOP trisodium]: the “Cold Storage (4° C.): visual change” value in data set [1] was “no change”. The “Room-Temperature Storage (23° C.): visual change” value in data set [1] is “change to brown”. For the same molecule, the figures for the “number of the cells (no addition taken to be 100)” value in data set [2] (4.9 mg/L) and in data set [2] (19.5 mg/L) were 128 and 121, respectively.
On to `CC(=O)CC1(O)C(=O)c2cc(C(=O)O)[nH]c2-c2c(C(=O)O)cc(C(=O)O)nc21` (centres unmarked) [HOP free form, 5-Hydroxy-4-oxo-5-(2-oxopropyl)-4,5-dihydro-1H-pyrrolo[2,3-f]quinoline-2,7,9-tricarboxylic acid, reference compound], for which the “Cold Storage (4° C.): visual change” value in data set [1] was “no change”. Moreover, the entries for the “number of the cells (no addition taken to be 100)” value in data set [2] (4.9 mg/L) and in data set [2] (19.5 mg/L) were 95 and 103, respectively. In the data set “physchem”, this molecule had a solubility of 2900 µM (≈ 1130 µg/mL).
Take `CC(=O)CC1(O)C(=O)c2cc(C(=O)[O-])[nH]c2-c2c(C(=O)[O-])cc(C(=O)[O-])nc21.[K+].[K+].[K+]` (centres unmarked) [HOP tripotassium]: the “Cold Storage (4° C.): visual change” value in data set [1] is recorded as “no change”.
On to `O=C(O)c1cc(C(=O)O)c2c(n1)C(=O)C(=O)c1cc(C(=O)O)[nH]c1-2.[Na].[Na]` [PQQ disodium, pyrroloquinoline quinone disodium, reference compound], for which the “color change with ascorbic acid” value in data set [3] is “changed in the color to black”. The molecule also displayed a solubility in “physchem” of 7500 µM.
`O=C(O)c1cc(C(=O)O)c2c(n1)C(=O)C(=O)c1cc(C(=O)O)[nH]c1-2` [PQQ free form, pyrroloquinoline quinone] yielded a solubility in the data set “physchem” of 1000 µM (≈ 330 µg/mL).
As to `O=C(O)c1cc(C(=O)O)c2c(n1)C(=O)C(=O)c1cc(C(=O)O)[nH]c1-2` [PQQ trisodium, reference compound], the “Saturated Solubility” value in data set [4] turned out to be 35 mmol/L.
Turning to HOP 2.5 sodium, in data set [1], the “Cold Storage (4° C.): visual change” value was “no change” and the “Room-Temperature Storage (23° C.): visual change” value was “no change”.
As to HOP 2.9 sodium, in data set [1], the “Cold Storage (4° C.): visual change” value is listed as “no change” and the “Room-Temperature Storage (23° C.): visual change” value is recorded as “no change”.
Regarding HOP dilithium, in data set [1], the “Cold Storage (4° C.): visual change” value is on record as “no change” and the “Room-Temperature Storage (23° C.): visual change” value is “no change”.
For HOP dipotassium, in data set [1], the “Cold Storage (4° C.): visual change” value was “no change” and the “Room-Temperature Storage (23° C.): visual change” value is reported as “no change”.
As to HOP disodium, the “Saturated Solubility” value in data set [4] was found to be 290 mmol/L. Moreover, the “color change with ascorbic acid” value in data set [3] is recorded as “no large change in the color”. Further, in data set [1], the “Cold Storage (4° C.): visual change” value is “no change” and the “Room-Temperature Storage (23° C.): visual change” value was “no change”. Further, the “number of the cells (no addition taken to be 100)” value in data set [2] (4.9 mg/L) came out at 116. Besides, the “number of the cells (no addition taken to be 100)” value in data set [2] (19.5 mg/L) amounted to 130.
Take “HOP disodium hydrogen carbonate cocrystal”: in data set [1], the “Cold Storage (4° C.): visual change” value was “no change” and the “Room-Temperature Storage (23° C.): visual change” value was “no change”.
Take “HOP trisodium hydrogen carbonate cocrystal”: in data set [1], the “Cold Storage (4° C.): visual change” value was “no change” and the “Room-Temperature Storage (23° C.): visual change” value is “no change”.

The values are drawn from patent publication US10131661B2, “High-solubility acetone-added pyrroloquinoline quinone salt” (Mitsubishi Gas Chemical Company, Inc., priority 2015, dated 2018).
